Experimental data published in US5667825A (Kellogg Company, priority 1996, dated 1997).
Entries after “also recorded” stand apart in the source; their conditions may differ.

How the values were obtained:
[1] = Oxidative stability of iron fortified cereals in hot room (hexanal, rancid odor, off odor); assay type: physicochemical; settings: for Off Odor Value / Rancid Odor Value / Hexanal Value: measured at two and four weeks (interval of value not stated); for Hexanal Value: ± 95% confidence interval
Experimental: The feasibility of using other iron sources was also tested. […] The individual tests are discussed in further detail below.
These samples were used for comparative stability and sensory analysis.
In order to test the stability of the iron fortified cereals, the R-T-E cereal samples prepared using four different sources of iron were placed in a hot room and exposed to a temperature of 100° F. over a four week period. Measurements were taken at two and four week intervals.

Sprague Dawley rats = test: Rat hemoglobin regeneration method, relative iron bioavailability (modified AOAC); assay type: in vivo
Experimental: The relative iron availability of various iron compounds in a ready-to-eat breakfast cereal was tested using a widely accepted method, commonly referred to as the rat hemoglobin regeneration method, (modified AOAC method for assessment of relative iron bioavailability), see Williams, S. ed. Official methods of analysis of the Association of Official Analytical Chemists, 14th ed. Arlington, Va. AOAC, 1984; Fritz, J. C. et al., Collaborative Study of rat hemoglobin repletion test for bioavailability of iron, AOAC 1974, 57: 513-517. The testing for relative bioavailability of the various iron compounds was carried out in a series of separate experiments. In each of these experiments, ferrous sulfate was used as the standard or control compound.
Sprague Dawley rats, individually housed in temperature and light controlled units, were fed an iron deficient diet obtained from Harland Tekland Laboratories for 24 days. After this iron depletion phase, the rats were weighed and blood was drawn to test for baseline hemoglobin concentrations. These anemic animals, with hemoglobin levels between […], were then randomly assigned to the control and test groups. Ferrous sulfate and the iron compounds in the cereal were added at concentrations of 6 and 18 and 24 mg iron/kg to the control and test diets. These diets were then fed to groups of ten animals, ad libitum, for 14 days. Iron levels in the diets, were verified by atomic absorption spectrometry (Bolin et al., J. Assoc. Off. Anal. Chem. 1977, 60: 1170-1174). After the 14 day test period, hemoglobin concentrations were determined for all animals.
The bioavailability of each iron source tested relative to ferrous sulfate, was calculated by comparing gain in hemoglobin with the iron concentration in the diet by the slope ratio procedure (Finney, D. J., Statistical methods in biological assay. 2nd ed. 1964; Amine et L., Biological assessment of available iron in food products, J. Agric. Food Chem. 1974, 22: 470-476.). […]

[2] = in some diets; cited from earlier work

## O=C([O-])CN(CCN(CC(=O)[O-])CC(=O)[O-])CC(=O)[O-].[Fe+3].[Na+] [Ferric EDTA, sodium ferric ethylenediaminetetraacetic acid complex]
[1]; expected in continuing tests
  Stability in continuing stability tests: expected to improve in stability in comparison to the other ferric samples tested
[1]; hot room 100° F., four weeks
  Oxidative stability (rancid odor, off odor, hexanal), result in words: statistically significant lower level of rancid odor, off odor and hexanal value; also recorded: most stable of the products tested with the lowest hexanal, rancid odor and off odor values
[1]; hot room 100° F.
  Off Odor Value: 0.78 ± 0.44
  Rancid Odor Value: 0.56 ± 0.43
  Hexanal Value: 0.40 ± 0.22
Sprague Dawley rats; 6, 18 and 24 mg iron/kg diet, 14 days, ± 95% confidence interval
  Slope Value (gain in hemoglobin vs iron concentration in the diet): 0.31 ± 0.03
Sprague Dawley rats; anemic rats, versus ferrous sulfate and reduced iron
  Iron bioavailability / absorption, result in words: absorbed at a rate not significantly different from ferrous sulphate and significantly better than reduced iron; also recorded: superior in bioavailability to reduced iron
[2]
  Bioavailability versus FeSO4 complex: two to three times more bioavailable

## O=C([O-])/C=C/C(=O)[O-].[Fe+2] [Ferrous Fumarate, ferrous fumarate, reference compound]
[1]; hot room 100° F.
  Off Odor Value: 2.67 ± 0.41
  Rancid Odor Value: 2.89 ± 0.62
  Hexanal Value: 2.37 ± 1.00

## ferrous sulfate [reference compound]
[1]; hot room 100° F.
  Off Odor Value: 2.33 ± 0.48
  Rancid Odor Value: 1.22 ± 0.57
  Hexanal Value: 2.13 ± 2.02
Sprague Dawley rats; rat, in vivo, 20160 min
  Slope Ratio (bioavailability relative to ferrous sulfate): 1.00
